Experimental data as given in patent US5430062A, “Stilbene derivatives as anticancer agents” (priority 1993, dated 1995).
Where two headings read alike, the source gives them in different places.

Tests used:
[1] = test system: MLM melanoma; assay: MTT cytotoxicity assay, MLM; details: […]
[2] = test system: A-549 lung carcinoma; assay: MTT cytotoxicity assay, A-549; details: Homo sapiens, A549, […]
[3] = test system: MCF-7 breast carcinoma; assay: MTT cytotoxicity assay, MCF-7; details: Homo sapiens, MCF7, […]
[4] = test system: HT-29 colon adenocarcinoma; assay: MTT cytotoxicity assay, HT-29; details: Homo sapiens, HT-29, […]
[5] = test system: SKMEL-5 melanoma; assay: MTT cytotoxicity assay, SKMEL-5; details: Homo sapiens, SK-MEL-5, […], read-out: Cytotoxicity ED50, SKMEL-5
[6] = read-out: Cytotoxicity ED50, MLM, MLM, MTT, six days
[7] = read-out: Cytotoxicity ED50, A-549, A-549, MTT, six days
[8] = read-out: Cytotoxicity ED50, MCF-7, MCF-7, MTT, six days
[9] = read-out: Cytotoxicity ED50, HT-29, HT-29, MTT, six days
[10] = read-out: Cytotoxicity ED50, MLM
[11] = read-out: Cytotoxicity ED50, A-549
[12] = read-out: Cytotoxicity ED50, MCF-7
[13] = read-out: Cytotoxicity ED50, HT-29

SMILES | IC50 [1, 6] [µM] | IC50 [2, 7] [µM] | IC50 [3, 8] [µM] | IC50 [4, 9] [µM] | IC50 [5] [µM] | IC50 [1, 10] [µM] | IC50 [2, 11] [µM] | IC50 [3, 12] [µM] | IC50 [4, 13] [µM]
COc1cccc(/C=C/c2cc(OC)c(OC)c(OC)c2)c1 [6b] | > 25 | 9.8 | 12.2 | 7.3 | 10.5 | – | – | – | –
COc1ccccc1/C=C/c1cc(OC)c(OC)c(OC)c1 [6c] | – | – | – | – | 13.5 | > 25 | 12.2 | 18 | 12.1
COc1ccc(/C=C/c2cc(OC)c(OC)c(OC)c2)c(Cl)c1 [6e] | > 25 | > 25 | > 25 | > 25 | > 25 | – | – | – | –
COc1cc(/C=C/c2ccccc2)cc(OC)c1OC [6f] | – | – | – | – | > 25 | > 25 | > 25 | > 25 | > 25
COc1cc(/C=C/c2ccc(Cl)cc2)cc(OC)c1OC [6g] | – | – | – | – | > 25 | > 25 | > 25 | > 25 | > 25
COc1cc(/C=C/c2ccc(Br)cc2)cc(OC)c1OC [6h] | – | – | – | – | 6.53 | 5.13 | 6.47 | 9.14 | 12.7
COc1cc(/C=C/c2ccncc2)cc(OC)c1OC [6i, 1-(4-Pyridyl)-2-(3,4,5-trimethoxyphenyl)ethene] | – | – | – | – | > 25 | > 25 | > 25 | > 25 | > 25
COc1cc(/C=C/c2cccnc2)cc(OC)c1OC [6j, 1-(3-Pyridyl)-2-(3,4,5-trimethoxyphenyl)ethene] | – | – | – | – | > 25 | > 25 | > 25 | > 25 | > 25
COc1cc(/C=C/c2ccc(O[Si](C)(C)C(C)(C)C)cc2)cc(OC)c1OC [6m, (E)-1-[(4-t-Butyldimethylsilyloxy)phenyl]-2-(3,4,5-trimethoxyphenyl)ethene] | – | – | – | – | > 25 | > 25 | > 25 | > 25 | > 25
COc1cc(/C=C/c2ccc(OC(C)=O)cc2)cc(OC)c1OC [6p, (E)-1-(4-Acetoxyphenyl)-2-(3,4,5-trimethoxyphenyl)ethene] | – | – | – | – | 4.6 | 13 | 9.7 | 9.6 | 5.4
COc1ccc(/C=C/c2ccccc2)cc1OC [6q, (E)-1-(3,4-Dimethoxyphenyl)-2-phenylethene] | – | – | – | – | > 25 | > 25 | > 25 | > 25 | > 25
COc1ccc(/C=C/c2ccccc2)c(OC)c1OC [6r, (E)-1-Phenyl-2-(2,3,4-trimethoxyphenyl)ethene] | – | – | – | – | > 25 | > 25 | > 25 | > 25 | > 25
COc1cc(/C=C/c2cc(OC)c(OC)c(OC)c2)cc(OC)c1 [6s] | – | – | – | – | > 25 | > 25 | > 25 | > 25 | > 25
COc1cc(/C=C/c2ccc(OC)c(OC)c2OC)cc(OC)c1OC [6t] | – | – | – | – | 10.6 | 23.9 | 12.5 | 14.7 | 10.3
COc1cc(/C=C/c2cc(OC)c(OC)c(OC)c2)cc(OC)c1OC [6u] | – | – | – | – | > 25 | > 25 | > 25 | > 25 | > 25
COc1cc(OC)c(OC)cc1/C=C/c1cc(OC)c(OC)c(OC)c1 [6v] | – | – | – | – | > 25 | > 25 | > 25 | > 25 | > 25
COc1cc(OC)c(OC)cc1/C=C/c1ccccc1 [6w] | – | – | – | – | > 25 | > 25 | > 25 | 8.5 | > 25
COc1cc(OC)c(/C=C/c2ccccc2)c(OC)c1 [6x] | – | – | – | – | > 25 | > 25 | > 25 | > 25 | > 25
COc1cc(/C=C/c2ccc(OC)c(OC)c2)cc(OC)c1 [6y] | – | – | – | – | > 25 | > 25 | > 25 | > 25 | > 25
COc1cc(/C=C/c2ccc(N)cc2)cc(OC)c1OC [6z, (E)-1-(4-Aminophenyl)-2-(3,4,5-trimethoxyphenyl)ethene] | – | – | – | – | > 25 | > 25 | > 25 | > 25 | > 25
COc1cccc(CCc2cc(OC)c(OC)c(OC)c2)c1 [8b] | – | – | – | – | 9.2 | > 25 | 11.7 | 12.4 | 7.6
COc1ccccc1CCc1cc(OC)c(OC)c(OC)c1 [8c] | – | – | – | – | 20 | > 25 | 13.5 | 11.8 | > 25
